# Test results published in patent publication US6355799B1, “Substituted benzene compounds, process for their preparation, and herbicidal and defoliant compositions containing them” (ISK Americas Incorporated, priority 1997, dated 2002).
# How the values were obtained:
# Assay type in all cases: in vivo
# [1] = tested on: redroot pigweed (Amaranthus retroflexus, AMARE); experiment: Pre-emerge test, greenhouse herbicide activity screening; details: pre-emerge, 14 days after application
# Source text: (§1) A standard greenhouse herbicide activity screening system was used to evaluate the herbicidal efficacy and crop safety of these test compounds. Seven broadleaf weed species including redroot pigweed (Amaranthus retroflexus, AMARE, velvetleaf (Abutilon theophrasti, ABUTH), sicklepod (Cassia obtusifolia, CASOB), ivyleaf morningglory (Ipomoea hederacea, IPOHE), lambsquarters (Chenopodium album, CHEAL), common ragweed (Ambrosia artemisizfolia L., AMBEL), and cocklebur (Xanthium strumarium, XANST) were used as test species. Four grass weed species including green foxtail (Setaria viridis, SETVI), barnyardgrass (Echinochloa crus-galli, ECHCG), johnsongrass (Sorghum halepense, SORHA), and large crabgrass (Digitaria sanguinalis, DIGSA) were also used. In addition, three crop species, field corn (Zea mays L., var. Dekalb 535, CORN), soybean (Glycine max L., var. Pella 86, SOY), and is upland rice (Oryza sp., var. Tebonnet, RICE) were included.
# (§2) All plants were grown in 10 cm square plastic pots which were filled with a sandy loam soil mix. For pre-emerge tests, seeds were planted one day prior to application of the test compounds. For post-emerge tests, seeds were planted 8-21 days prior to the test to allow emergence and good foliage development prior to application of the test substances. At the time of the post-emerge application, plants of all species were usually at the 2-3 leaf stage of development.
# All test compounds Were dissolved in acetone and applied to the test units in a volume of 187 l /ha. […] Plants were arranged on a shelf so that the top of the canopy (post-emerge) or top of the soil surface (pre-emerge) was 40-45 cm below the nozzle. Pressurized air was used to force the test solution through the nozzle as it was mechanically advanced (via electrically driven chain drive) over the top of all test plants/pots. This application simulates a typical commercial field herbicide application.
# (§3) In the post-emerge test, a commercial non-ionic surfactant was also included (0.25% v/v) to enhance wetting of the leaf surfaces of target plants. Immediately after application, test units of the pre-emerge applications were watered at the soil surface to incorporate the test materials. Subsequently, these test units were bottom-watered. Post-emerge test units were always bottom-watered.
# (§4) At 14 days after application of the test materials, phytotoxicity ratings were recorded. A rating scale of 0-100 was used as previously described in Research Methods in Weed Science, 2nd edition, B. Truelove, Ed., Southern Weed Science Society, Auburn University, Auburn, Ala. 1977. Briefly, “0” corresponds to no damage and “100” corresponds to complete death of all plants in the test unit. This scale was used both to determine efficacy against weed species and damage to crop species. Herbicide activity data for various compounds of this invention, which are shown by compound No. in Tables 1-8, are shown in Tables 11 and 12.
# [2] = tested on: barnyardgrass (Echinochloa crus-galli, ECHCG); experiment: as above; details: pre-emerge, 14 days after application
# Source text: as §1, §2
# (§5) All test compounds Were dissolved in acetone and applied to the test units in a volume of 187 l /ha. Test materials were applied at rates ranging from 15 g ai/ha to 1000 g ai/ha using a track sprayer equipped with a TJ8001E even flow flat fan spray nozzle. Plants were arranged on a shelf so that the top of the canopy (post-emerge) or top of the soil surface (pre-emerge) was 40-45 cm below the nozzle. Pressurized air was used to force the test solution through the nozzle as it was mechanically advanced (via electrically driven chain drive) over the top of all test plants/pots. This application simulates a typical commercial field herbicide application.
# as §3, §4
# [3] = tested on: green foxtail (Setaria viridis, SETVI); experiment: as above; details: pre-emerge, 14 days after application
# Source text: as §1, §2, §5, §3, §4
# [4] = tested on: ivyleaf morningglory (Ipomoea hederacea, IPOHE); experiment: as above; details: pre-emerge, 14 days after application
# Source text: as §1, §2, §5, §3, §4
# [5] = tested on: lambsquarters (Chenopodium album, CHEAL); experiment: as above; details: pre-emerge, 14 days after application
# Source text: as §1, §2, §5, §3, §4
# [6] = tested on: large crabgrass (Digitaria sanguinalis, DIGSA); experiment: as above; details: pre-emerge, 14 days after application
# Source text: as §1, §2, §5, §3, §4
# [7] = tested on: sicklepod (Cassia obtusifolia, CASOB); experiment: as above; details: pre-emerge, 14 days after application
# Source text: as §1, §2, §5, §3, §4
# [8] = tested on: velvetleaf (Abutilon theophrasti, ABUTH); experiment: as above; details: pre-emerge, 14 days after application
# Source text: as §1, §2, §5, §3, §4
# [9] = tested on: field corn (Zea mays L., var. Dekalb 535, CORN); experiment: Pre-emerge test, crop safety; details: pre-emerge, 14 days after application, scale 0-100
# Source text: as §1, §2, §5, §3, §4
# [10] = tested on: upland rice (Oryza sp., var. Tebonnet, RICE); experiment: Pre-emerge test, crop safety; details: pre-emerge, 14 days after application, scale 0-100
# Source text: as §1, §2, §5, §3, §4
# [11] = tested on: barnyardgrass (Echinochloa crus-galli, ECHCG); experiment: Post-emerge test, greenhouse herbicide activity screening; details: post-emerge, 14 days after application, rating scale 0-100
# Source text: as §1, §2, §5, §3, §4
# [12] = tested on: green foxtail (Setaria viridis, SETVI); experiment: as above; details: post-emerge, 14 days after application, rating scale 0-100
# Source text: as §1, §2, §5, §3, §4
# [13] = tested on: ivyleaf morningglory (Ipomoea hederacea, IPOHE); experiment: as above; details: post-emerge, 14 days after application, rating scale 0-100
# Source text: as §1, §2, §5, §3, §4
# [14] = tested on: lambsquarters (Chenopodium album, CHEAL); experiment: as above; details: post-emerge, 14 days after application, rating scale 0-100
# Source text: as §1, §2, §5, §3, §4
# [15] = tested on: large crabgrass (Digitaria sanguinalis, DIGSA); experiment: as above; details: post-emerge, 14 days after application, rating scale 0-100
# Source text: as §1, §2, §5, §3, §4
# [16] = tested on: redroot pigweed (Amaranthus retroflexus, AMARE); experiment: as above; details: post-emerge, 14 days after application
# Source text: as §1, §2, §5, §3, §4
# [17] = tested on: sicklepod (Cassia obtusifolia, CASOB); experiment: as above; details: post-emerge, 14 days after application, rating scale 0-100
# Source text: as §1, §2, §5, §3, §4
# [18] = tested on: velvetleaf (Abutilon theophrasti, ABUTH); experiment: as above; details: post-emerge, 14 days after application, rating scale 0-100
# Source text: as §1, §2, §5, §3, §4
# [19] = 250 g ai/ha, rating scale 0-100
smiles,measurement,setting,value
COc1c(Cl)cc(F)c(-n2c(=O)cc(C(F)(F)F)n(C)c2=O)c1NC(=O)c1cc2ccccc2cc1C [2-157],phytotoxicity rating AMARE,"[1]; 63 g ai/ha, scale 0-100",100
same,phytotoxicity rating AMARE,"[1]; 250 g ai/ha, scale 0-100",100
same,phytotoxicity rating ECHCG,"[2]; 63 g ai/ha, scale 0-100",30
same,phytotoxicity rating ECHCG,"[2]; 250 g ai/ha, scale 0-100",95
same,phytotoxicity rating SETVI,"[3]; 63 g ai/ha, scale 0-100",30
same,phytotoxicity rating SETVI,"[3]; 250 g ai/ha, scale 0-100",70
same,phytotoxicity rating IPOHE,"[4]; 63 g ai/ha, scale 0-100",40
same,phytotoxicity rating IPOHE,"[4]; 250 g ai/ha, scale 0-100",100
same,phytotoxicity rating CHEAL,"[5]; 63 g ai/ha, scale 0-100",100
same,phytotoxicity rating CHEAL,"[5]; 250 g ai/ha, scale 0-100",100
same,phytotoxicity rating DIGSA,"[6]; 63 g ai/ha, scale 0-100",35
same,phytotoxicity rating DIGSA,"[6]; 250 g ai/ha, scale 0-100",70
same,phytotoxicity rating CASOB,"[7]; 63 g ai/ha, scale 0-100",30
same,phytotoxicity rating CASOB,"[7]; 250 g ai/ha, scale 0-100",90
same,phytotoxicity rating ABUTH,"[8]; 63 g ai/ha, scale 0-100",100
same,phytotoxicity rating ABUTH,"[8]; 250 g ai/ha, scale 0-100",100
same,phytotoxicity rating CORN (crop damage),[9]; 63 g ai/ha,0
same,phytotoxicity rating CORN (crop damage),[9]; 250 g ai/ha,45
same,phytotoxicity rating RICE (crop damage),[10]; 63 g ai/ha,30
same,phytotoxicity rating RICE (crop damage),[10]; 250 g ai/ha,70
"COc1c(Cl)cc(F)c(-n2c(=O)cc(C(F)(F)F)n(C)c2=O)c1NN [Compound 15-1, 3-[4-chloro-2-diazanyl-6-fluoro-3-methoxyphenyl]-1-methyl-6-trifluoromethyl-2,4(1H, 3H)-pyrimidinedione]",phytotoxicity rating AMARE,"[1]; 63 g ai/ha, rating scale 0-100",100
same,phytotoxicity rating AMARE,[1]; [19],100
same,phytotoxicity rating ECHCG,"[2]; 63 g ai/ha, rating scale 0-100",91
same,phytotoxicity rating ECHCG,[2]; [19],100
same,phytotoxicity rating SETVI,"[3]; 63 g ai/ha, rating scale 0-100",100
same,phytotoxicity rating SETVI,[3]; [19],100
same,phytotoxicity rating IPOHE,"[4]; 63 g ai/ha, rating scale 0-100",100
same,phytotoxicity rating IPOHE,[4]; [19],100
same,phytotoxicity rating CHEAL,"[5]; 63 g ai/ha, rating scale 0-100",100
same,phytotoxicity rating CHEAL,[5]; [19],100
same,phytotoxicity rating DIGSA,"[6]; 63 g ai/ha, rating scale 0-100",100
same,phytotoxicity rating DIGSA,[6]; [19],100
same,phytotoxicity rating CASOB,"[7]; 63 g ai/ha, rating scale 0-100",100
same,phytotoxicity rating CASOB,[7]; [19],100
same,phytotoxicity rating ABUTH,"[8]; 63 g ai/ha, rating scale 0-100",100
same,phytotoxicity rating ABUTH,[8]; [19],100
same,Post-emerge Herbicidal Activity ECHCG (phytotoxicity rating),[11]; 63 g ai/ha,80
same,Post-emerge Herbicidal Activity ECHCG (phytotoxicity rating),[11]; 250 g ai/ha,99
same,Post-emerge Herbicidal Activity SETVI (phytotoxicity rating),[12]; 63 g ai/ha,80
same,Post-emerge Herbicidal Activity SETVI (phytotoxicity rating),[12]; 250 g ai/ha,100
same,Post-emerge Herbicidal Activity IPOHE (phytotoxicity rating),[13]; 63 g ai/ha,100
same,Post-emerge Herbicidal Activity IPOHE (phytotoxicity rating),[13]; 250 g ai/ha,100
same,Post-emerge Herbicidal Activity CHEAL (phytotoxicity rating),[14]; 63 g ai/ha,100
same,Post-emerge Herbicidal Activity CHEAL (phytotoxicity rating),[14]; 250 g ai/ha,100
same,Post-emerge Herbicidal Activity DIGSA (phytotoxicity rating),[15]; 63 g ai/ha,90
same,Post-emerge Herbicidal Activity DIGSA (phytotoxicity rating),[15]; 250 g ai/ha,100
same,Post-emerge Herbicidal Activity AMARE (phytotoxicity rating),"[16]; 63 g ai/ha, rating scale 0-100 (0 no damage, 100 complete death)",100
same,Post-emerge Herbicidal Activity AMARE (phytotoxicity rating),[16]; [19],100
same,Post-emerge Herbicidal Activity CASOB (phytotoxicity rating),[17]; 63 g ai/ha,100
same,Post-emerge Herbicidal Activity CASOB (phytotoxicity rating),[17]; 250 g ai/ha,100
same,Post-emerge Herbicidal Activity ABUTH (phytotoxicity rating),[18]; 63 g ai/ha,100
same,Post-emerge Herbicidal Activity ABUTH (phytotoxicity rating),[18]; 250 g ai/ha,100
